Reference: article PMC8347172, “Optimization and Validation of an In Vitro Standardized Glycogen Phosphorylase Activity Assay” (Molecules, 2021)
One block for each molecule: values may come before it.

Tests used:
[1] = molecular target: T1, rabbit muscle glycogen phosphorylase a (GPa) (Oryctolagus cuniculus, UniProt P00489); assay: colorimetric phosphate release assay (BIOMOL Green), glycogen synthesis direction, […] °C, no glucose; assay type: biochemical
T1 construct: gene PYGM
T1 sequence (P00489 2-843): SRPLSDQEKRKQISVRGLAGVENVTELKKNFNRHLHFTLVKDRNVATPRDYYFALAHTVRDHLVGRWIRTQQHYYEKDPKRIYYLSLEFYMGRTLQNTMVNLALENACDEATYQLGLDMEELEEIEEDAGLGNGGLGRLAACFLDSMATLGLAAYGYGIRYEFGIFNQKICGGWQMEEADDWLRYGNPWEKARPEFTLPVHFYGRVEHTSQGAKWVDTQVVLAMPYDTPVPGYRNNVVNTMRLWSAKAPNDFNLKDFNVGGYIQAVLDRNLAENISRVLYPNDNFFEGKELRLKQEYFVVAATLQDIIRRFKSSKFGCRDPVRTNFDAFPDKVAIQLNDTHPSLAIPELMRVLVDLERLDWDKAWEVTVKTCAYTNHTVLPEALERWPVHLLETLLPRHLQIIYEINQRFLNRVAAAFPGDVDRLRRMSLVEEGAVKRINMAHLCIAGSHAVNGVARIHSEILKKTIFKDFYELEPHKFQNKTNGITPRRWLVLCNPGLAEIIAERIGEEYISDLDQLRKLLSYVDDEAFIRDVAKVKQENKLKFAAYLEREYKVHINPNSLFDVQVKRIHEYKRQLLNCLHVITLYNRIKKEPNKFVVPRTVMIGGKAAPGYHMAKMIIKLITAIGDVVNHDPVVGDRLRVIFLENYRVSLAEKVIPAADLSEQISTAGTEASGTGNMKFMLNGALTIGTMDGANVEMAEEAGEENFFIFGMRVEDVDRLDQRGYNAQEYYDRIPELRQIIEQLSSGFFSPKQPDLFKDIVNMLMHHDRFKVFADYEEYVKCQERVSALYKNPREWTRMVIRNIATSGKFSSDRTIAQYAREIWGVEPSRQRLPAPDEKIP

[2] = molecular target: T1, rabbit muscle glycogen phosphorylase a (GPa); assay: colorimetric phosphate release assay (BIOMOL Green); percent inhibition at […], […] °C; assay type: biochemical
[3] = substrate: O=P(O)(O)O[C@H]1O[C@H](CO)[C@@H](O)[C@H](O)[C@H]1O; assay: purified protein

IC50 [1]: 580 ± 90 nM
Molecule: CN(C)C(=O)[C@H](O)[C@H](Cc1ccccc1)NC(=O)c1cc2cc(Cl)ccc2[nH]1 [CP-91149, 5-chloro-N-[(1S,2R)-3-(dimethylamino)-2-hydroxy-3-oxo-1-(phenylmethyl)propyl]-1H-indole-2-carboxamide]

% inhibition at 100 μM [2]: 40.6 ± 4.5
Molecule: O=c1oc2c(O)c(O)cc3c(=O)oc4c(O)c(O)cc1c4c23 [ellagic acid]

B1: rabbit muscle glycogen phosphorylase a (GPa) (Oryctolagus cuniculus) (protein)
chain: SRPLSDQEKRKQISVRGLAGVENVTELKKNFNRHLHFTLVKDRNVATPRDYYFALAHTVRDHLVGRWIRTQQHYYEKDPKRIYYLSLEFYMGRTLQNTMVNLALENACDEATYQLGLDMEELEEIEEDAGLGNGGLGRLAACFLDSMATLGLAAYGYGIRYEFGIFNQKICGGWQMEEADDWLRYGNPWEKARPEFTLPVHFYGRVEHTSQGAKWVDTQVVLAMPYDTPVPGYRNNVVNTMRLWSAKAPNDFNLKDFNVGGYIQAVLDRNLAENISRVLYPNDNFFEGKELRLKQEYFVVAATLQDIIRRFKSSKFGCRDPVRTNFDAFPDKVAIQLNDTHPSLAIPELMRVLVDLERLDWDKAWEVTVKTCAYTNHTVLPEALERWPVHLLETLLPRHLQIIYEINQRFLNRVAAAFPGDVDRLRRMSLVEEGAVKRINMAHLCIAGSHAVNGVARIHSEILKKTIFKDFYELEPHKFQNKTNGITPRRWLVLCNPGLAEIIAERIGEEYISDLDQLRKLLSYVDDEAFIRDVAKVKQENKLKFAAYLEREYKVHINPNSLFDVQVKRIHEYKRQLLNCLHVITLYNRIKKEPNKFVVPRTVMIGGKAAPGYHMAKMIIKLITAIGDVVNHDPVVGDRLRVIFLENYRVSLAEKVIPAADLSEQISTAGTEASGTGNMKFMLNGALTIGTMDGANVEMAEEAGEENFFIFGMRVEDVDRLDQRGYNAQEYYDRIPELRQIIEQLSSGFFSPKQPDLFKDIVNMLMHHDRFKVFADYEEYVKCQERVSALYKNPREWTRMVIRNIATSGKFSSDRTIAQYAREIWGVEPSRQRLPAPDEKIP
Km [3]: 150 ± 30 µM
